From patent US12692232B2, “Indole carboxamide compound, preparation therefor and use thereof” (NANJING RUISHUNING MEDICAL TECHNOLOGY CO., LTD., priority 2021, dated 2026)

Experiments:
[1] = test system: mouse model of focal segmental glomerulosclerosis; assay: Mouse model of focal segmental glomerulosclerosis (adriamycin); assay type: in vivo; details: for serum urea nitrogen level: model 16.08±0.23; for urine protein level: model 547.0±106.3; for glomerular lesions, renal tissue pathology (H&E, PAS, Sirius red stain): FIG. 1; for glomerular lesions, renal tissue pathology (H&E, PAS, Sirius red stain) / body weight compared with the FSGS group: control compound 25 mg/kg, irbesartan 50 mg/kg; for body weight compared with the FSGS group: gavage daily 6 weeks, compound 1-1 10, 25, 50 mg/kg
Protocol: The method was as follows:
Each mouse in the model group, the treatment groups and the positive control group was injected once into the tail vein with adriamycin at a dose of 8 mg/kg, and each mouse in the control group was injected once into the tail vein with saline at the same dose. The mice in the control group and model group were administered equal amount of saline by gavage for 6 weeks, and the mice in other group were administered corresponding compound in doses by gavage at a fixed time each day for 6 weeks after modelling with adriamycin. The body weights were recorded weekly and urine samples were collected.
Collection of urine samples: animals were placed in separate metabolic cages by group on days 0, 7, 14, 21, 28, 35, and 42 after modelling, with free access to water and no access to food, and urine samples were collected from each group of mice.
Determination of urine protein level using Coomassie brilliant blue (CBB) method: urine protein level was determined by urine protein quantitative test kit (Nanjing Jiancheng Bioengineering Institute). CBB working solution was prepared according to the kit instructions. 0.05 mL of each urine sample was mixed with 3 mL of CBB working solution, the mixture was allowed to stand for 5 min, and the absorbance value of each sample was determined at 595 nm. The urine protein levels samples of each group was calculated according to the protein standardization formula: urine protein level (mg/L)=(measured OD−blank OD)/(standard OD−blank OD)×563 mg/L.
Collection of serum samples: orbital blood from each mouse was collected in an EP tube, placed at 37° C. for 20 minutes, and centrifuged to obtain an upper layer of serum.
Collection of plasma samples: orbital blood from each mouse was collected in an anticoagulation tube, mixed well and stored at 4° C. for later use.
Determination of urea nitrogen level in plasma by diacetyl monoxime method: urea nitrogen level was determined by using blood urea nitrogen (BUN) test kit (Nanjing Jiancheng Bioengineering Institute). According to the kit instructions, 0.05 mL of anticoagulated plasma sample was mixed with 1 mL of oxime solution and 1 mL of acid working solution, and the mixtures were placed in a boiling water bath for 15 minutes. A UV-visible spectrophotometer was used to determine the absorbance values of each tube at a wavelength of 520 nm. Urea nitrogen levels in plasma samples of each group were calculated according to the formula: Urea nitrogen level (mmol/L)=(measured OD value−blank OD value)/(standard OD value−blank OD value)×10 mmol/L.
Collection of kidney tissue samples: kidneys were taken from mice after anesthesia, cut horizontally, and the upper part of the kidneys was embedded in OCT embedding box, sliced with frozen slicer and stored at −20° C.
H&E staining was used to assess pathological glomerular changes, and the procedure was as follows: frozen sections were fixed with 95% ethanol for 2 minutes, hydrated with distilled water, stained with hematoxylin for 3 minutes, washed with distilled water for 3 minutes, differentiated using 1% hydrochloric acid in ethanol for 10 seconds, washed with distilled water for 30 seconds, returned to blue in running water for 5 minutes, washed in distilled water for 30 seconds, stained with eosin for 30 seconds, washed with 75% and 85% ethanol for 20 seconds each, dehydrated rapidly with 95% ethanol for 1 minute, dehydrated with anhydrous ethanol, cleared to transparency in xylene (1 minute×3), and finally sealed with neutral balsam and photographed with a biomicroscope.

[2] = test system: rat model of pulmonary hypertension induced by monocrotaline; assay: Rat model of pulmonary hypertension induced by monocrotaline; assay type: in vivo; details: for reduction of TNF-α levels compared with the MCT model: 25 mg/kg; for RV/(LV + S): MCT model 0.45 ± 0.03; for TNF-α in lung tissue: MCT model 0.94 ± 0.07; for mPAP: MCT model 33.7 ± 4.3; for small pulmonary artery lesions compared with the model group (histopathology, H&E): treatment groups
Protocol: The preventive effect of the compounds of the present invention (as exemplified by compound 1-1 obtained in Example 1) on pulmonary hypertension was determined using a rat model of pulmonary hypertension induced by monocrotaline. The method was as follows:
Grouping of animals: 70 male SD rats with weigh of 200±20 g were randomly divided into 7 groups, i.e., a normal control group, a monocrotaline (MCT) model group, a treatment group of low-dose compound 1-1 (10 mg/kg) (MCT), a treatment group of medium-dose compound 1-1 (25 mg/kg) (MCT), a treatment group of high-dose compound 1-1 (50 mg/kg) (MCT), a treatment group of medium-dose indole analogue 3-[(1-methyl-1H-indole-2-carbonyl)amino]propionic acid (25 mg/kg) disclosed in CN2019107285315 (MCT), and a sildenafil group (150 mg/kg) (MCT), with 10 rats in each group.
Experimental procedure: MCT was prepared as a 2% solution with a mixture of ethanol and saline (2:8) and the solution was injected intraperitoneally once at a dose of 60 mg/kg body weight in all groups except the normal control group. Each rat in the normal control group was injected intraperitoneally once with a solution prepared from ethanol and saline in a volume ratio of 2:8. Compound 1-1 obtained in Example 1, the indole analogue 3-[(1-methyl-1H-indole-2-carbonyl)amino]propionic acid disclosed in CN2019107285315, or the positive drug sildenafil was administered by gavage to the mice in the treatment groups on the day of modelling, and saline was administered by gavage to the mice in the normal control group and the MCT model group. The drugs were administered by gavage once a day for 28 days until 12 hours before test.
Determination of hemodynamic indexes: a polyethylene plastic microcatheter filled with heparin solution (0.9% sodium chloride solution+10 U/mL heparin) was inserted into the right external jugular vein of a rat, and the other end of the microcatheter was connected to a miniature pressure transducer to monitor the pressure changes. […] After 30 minutes of stabilization, the POWERLAB multi-channel intelligent physiological signal acquisition and recording system was applied to acquire, record and analyze the indexes.
Determination of the index of right ventricular (RV) hypertrophy: at the end of the experiment, the heart was removed by dissection of the thorax and the atrial tissue was cut off. The right ventricle (RV), left ventricle (LV), and interventricular septum (S) were isolated along the edge of the interventricular septum, and the RV, LV, and S were weighed after absorbing water with filter paper and the ratio RV/(LV+S) was used to reflect the degree of RV hypertrophy.
Pathological examination of pulmonary vessels: tissue blocks were taken from the same site in the lower lobe of the right lung and fixed in 10% neutral formaldehyde (pH=7.4) for 2 days. Routine paraffin embedding, serial sections, H&E staining and light microscopy were performed to observe morphological changes in small pulmonary arteries.
Effect on inflammatory factors in lung tissue: Lung tissues were collected from each group of rats, homogenates of lung tissue were prepared and centrifuged and supernatants were collected. The protein level in the supernatant was determined by Coomassie brilliant blue method, and tumor necrosis factor-α (TNF-α) in rats was determined by an ELISA kit (Beijing 4A Biotech Co., Ltd.). […]

[3] = MCT + 25 mg/kg gavage once a day 28 days

SMILES | serum urea nitrogen level reduced compared with the model group ([1]; 25 mg/kg gavage, 6 weeks) | urine protein level reduced compared with the model group ([1]; 25 mg/kg gavage, 6 weeks) | serum urea nitrogen level ([1]; 25 mg/kg gavage, 6 weeks) | urine protein level ([1]; 25 mg/kg gavage, 6 weeks) | glomerular lesions, renal tissue pathology (H&E, PAS, Sirius red stain) [1] | body weight compared with the FSGS group [1] | reduction of TNF-α levels compared with the MCT model [2] | RV/(LV + S) ([2]; MCT + 25 mg/kg gavage 28 days) | TNF-α in lung tissue ([2]; MCT + 25 mg/kg gavage 28 days) | mPAP [2, 3] | small pulmonary artery lesions compared with the model group (histopathology, H&E) [2] | also measured
Cn1c(C(=O)NCCC(=O)O)cc2ccccc21 [3-[(1-methyl-1H-indole-2-carbonyl)amino]propionic acid, reference compound] | 20.3% | 22.6% | 12.82 ± 0.46 mmol/L | 423 ± 64.7 mg/L | glomerular mesangial matrix hyperplasia is reduced compared with the model group, but increased compared with the treatment groups of compound 1-1 | increased body weights | 37.2% | 0.38 ± 0.04 | 0.59 ± 0.07 g/g protein | 28.9 ± 3.4 mmHg | significantly reduced | 
CC(=O)OCCCNC(=O)c1c(C=O)c2ccccc2n1C [compound 1-1, propyl 3-[(3-formyl-1-methyl-1H-indole-2-carbonyl)amino]acetate] | 27.2% | 28.6% | 11.7 ± 0.33 mmol/L | 390 ± 74.6 mg/L | significantly ameliorates glomerular lesions caused by FSGS | increased body weights | 58.5% | 0.31 ± 0.04 | 0.39 ± 0.05 g/g protein | 25.8 ± 2.5 mmHg | significantly reduced | serum urea nitrogen level vs model group ([1]; 10 mg/kg gavage, 6 weeks): significantly reduced; urine protein level vs model group ([1]; 10 mg/kg gavage, 6 weeks): significantly reduced; serum urea nitrogen level reduced compared with the model group ([1]; 50 mg/kg gavage, 6 weeks): 29.8%; urine protein level reduced compared with the model group ([1]; 50 mg/kg gavage, 6 weeks): 42.7%; serum urea nitrogen level ([1]; 50 mg/kg gavage, 6 weeks): 11.29 ± 0.40 mmol/L; urine protein level ([1]; 50 mg/kg gavage, 6 weeks): 313 ± 57.6 mg/L; RV/(LV + S) ([2]; MCT + 10 mg/kg gavage 28 days): 0.37 ± 0.04; TNF-α in lung tissue ([2]; MCT + 10 mg/kg gavage 28 days): 0.65 ± 0.08 g/g protein; mPAP ([2]; MCT + 10 mg/kg gavage once a day 28 days): 26.0 ± 2.8 mmHg; RV/(LV + S) ([2]; MCT + 50 mg/kg gavage 28 days): 0.28 ± 0.03; TNF-α in lung tissue ([2]; MCT + 50 mg/kg gavage 28 days): 0.34 ± 0.05 g/g protein; mPAP ([2]; MCT + 50 mg/kg gavage once a day 28 days): 20.3 ± 3.0 mmHg
